This assay concerns P388 leukemia ip, CD2F1 mice, survival T/C. Description: NCI In Vivo Anticancer Drug Screen. Data for tumor model P388 Leukemia (intraperitoneal) in CD2F1 (CDF1) mice. The settings on record: endpoint: median survival time, higher = longer survival. The gist of the method: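 Mice carrying the transplanted tumor received test compound or vehicle. Survival was recorded in each group, and the value is the treated-group measurement divided by that of the vehicle-treated control group.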

The mark [1] stands for this setting: dose: 50.0 mg/kg/injection, schedule: Q01DX009 (ip), vehicle: Klucel (hydroxypropylcellulose) (HPC).
Setting [2] is: dose: 100.0 mg/kg/injection, schedule: Q01DX009 (ip), vehicle: Klucel (hydroxypropylcellulose) (HPC).
Where [3] appears, read: dose: 200.0 mg/kg/injection, schedule: Q01DX009 (ip), vehicle: Klucel (hydroxypropylcellulose) (HPC).
[4] abbreviates: dose: 25.0 mg/kg/injection, schedule: Q01DX009 (ip), vehicle: saline.
The mark [5] stands for this setting: dose: 50.0 mg/kg/injection, schedule: Q01DX009 (ip), vehicle: saline.
The mark [6] stands for this setting: dose: 100.0 mg/kg/injection, schedule: Q01DX009 (ip), vehicle: saline.

Several values for one entry are separate records, joined by “and”; a condition that tells them apart may be missing. Equal values may be shown once. Inconclusive results and toxic doses are left out.

For the compound `COc1cc([C@@H]2c3cc4c(cc3[C@@H](OC3OC5COC(C)OC5C(O)C3O)[C@H]3COC(=O)[C@H]23)OCO4)cc(OC)c1O` (stereo partly specified), the T/C (dose: 1.0 mg/kg/injection, schedule: Q01DX009 (ip), vehicle: saline) was 181 % of control; the T/C (dose: 2.0 mg/kg/injection, schedule: Q01DX009 (ip), vehicle: saline) is 183 % of control and 217 % of control; the T/C (dose: 4.0 mg/kg/injection, schedule: Q01DX001 (ip), vehicle: saline with Tween-80) was 153 % of control; the T/C (dose: 4.0 mg/kg/injection, schedule: Q01DX009 (ip), vehicle: saline) is 241 % of control and 300 % of control; the T/C (dose: 5.0 mg/kg/injection, schedule: Q04DX003 (ip), vehicle: saline with Tween-80) was 122 % of control; the T/C (dose: 6.24 mg/kg/injection, schedule: Q04DX003 (ip), vehicle: water) is 177 % of control. The T/C by setting is: (dose: 6.48 mg/kg/injection, schedule: Q04DX003 (ip), vehicle: water) 178 % of control and 219 % of control; (dose: 7.78 mg/kg/injection, schedule: Q04DX003 (ip), vehicle: water) 212 % of control; (dose: 8.0 mg/kg/injection, schedule: Q01DX001 (ip), vehicle: saline with Tween-80) 164 % of control; (dose: 8.0 mg/kg/injection, schedule: Q01DX001 (ip), vehicle: saline) 180 % of control; (dose: 8.0 mg/kg/injection, schedule: Q01DX001 (ip), vehicle: water) 162 % of control and 168 % of control; (dose: 8.0 mg/kg/injection, schedule: Q08DX002 (ip), vehicle: saline) 207 % of control. In addition, the T/C by setting is: (dose: 10.0 mg/kg/injection, schedule: Q04DX002 (ip), vehicle: suspension in saline) 162 % of control; (dose: 10.0 mg/kg/injection, schedule: Q04DX003 (ip), vehicle: saline with Tween-80) 174 % of control and 190 % of control; (dose: 10.4 mg/kg/injection, schedule: Q04DX003 (ip), vehicle: clinical formulation) 247 % of control; (dose: 10.4 mg/kg/injection, schedule: Q04DX003 (ip), vehicle: water) 213 % of control; (dose: 10.8 mg/kg/injection, schedule: Q04DX002 (ip), vehicle: water) 243 % of control; (dose: 10.8 mg/kg/injection, schedule: Q04DX003 (ip), vehicle: water) 211 % of control and 281 % of control. Further, the T/C was 211 % of control (dose: 12.0 mg/kg/injection, schedule: Q04DX003 (ip), vehicle: saline); 240 % of control (dose: 13.0 mg/kg/injection, schedule: Q04DX002 (ip), vehicle: Klucel (hydroxypropylcellulose) (HPC)); 234 % of control (dose: 13.0 mg/kg/injection, schedule: Q04DX003 (ip), vehicle: water); 240 % of control (dose: 16.0 mg/kg/injection, schedule: Q08DX002 (ip), vehicle: saline); 276 % of control (dose: 17.3 mg/kg/injection, schedule: Q04DX003 (ip), vehicle: clinical formulation); 272 % of control (dose: 17.3 mg/kg/injection, schedule: Q04DX003 (ip), vehicle: water). The T/C is 264 % of control (dose: 18.0 mg/kg/injection, schedule: Q04DX002 (ip), vehicle: water); 320 % of control and 576 % of control (dose: 18.0 mg/kg/injection, schedule: Q04DX003 (ip), vehicle: Klucel (hydroxypropylcellulose) (HPC)); 167 % of control (dose: 20.0 mg/kg/injection, schedule: Q04DX002 (ip), vehicle: suspension in saline); 183 % of control and 190 % of control (dose: 20.0 mg/kg/injection, schedule: Q04DX003 (ip), vehicle: saline with Tween-80); 280 % of control (dose: 21.6 mg/kg/injection, schedule: Q04DX002 (ip), vehicle: Klucel (hydroxypropylcellulose) (HPC)); 235 % of control (dose: 21.6 mg/kg/injection, schedule: Q04DX002 (ip), vehicle: water). In addition, the T/C runs as follows: (dose: 21.6 mg/kg/injection, schedule: Q04DX003 (ip), vehicle: water) 398 % of control; (dose: 27.0 mg/kg/injection, schedule: Q04DX003 (ip), vehicle: Klucel (hydroxypropylcellulose) (HPC)) 436 % of control and 567 % of control; (dose: 28.8 mg/kg/injection, schedule: Q04DX003 (ip), vehicle: clinical formulation) 419 % of control; (dose: 28.8 mg/kg/injection, schedule: Q04DX003 (ip), vehicle: water) 304 % of control; (dose: 30.0 mg/kg/injection, schedule: Q04DX002 (ip), vehicle: water) 441 % of control; (dose: 30.0 mg/kg/injection, schedule: Q04DX003 (ip), vehicle: water) 333 % of control and 358 % of control. For the same compound, the T/C reads like this: (dose: 32.0 mg/kg/injection, schedule: Q08DX002 (ip), vehicle: saline) 285 % of control; (dose: 36.0 mg/kg/injection, schedule: Q04DX002 (ip), vehicle: Klucel (hydroxypropylcellulose) (HPC)) 290 % of control; (dose: 36.0 mg/kg/injection, schedule: Q04DX002 (ip), vehicle: water) 445 % of control; (dose: 36.0 mg/kg/injection, schedule: Q04DX003 (ip), vehicle: water) 416 % of control; (dose: 40.0 mg/kg/injection, schedule: Q04DX002 (ip), vehicle: suspension in saline) 218 % of control; (dose: 40.0 mg/kg/injection, schedule: Q04DX003 (ip), vehicle: Klucel (hydroxypropylcellulose) (HPC)) 436 % of control and 576 % of control. For the same compound, the T/C is 223 % of control and 257 % of control (dose: 40.0 mg/kg/injection, schedule: Q04DX003 (ip), vehicle: saline with Tween-80); 372 % of control (dose: 50.0 mg/kg/injection, schedule: Q04DX002 (ip), vehicle: water); 354 % of control (dose: 60.0 mg/kg/injection, schedule: Q04DX002 (ip), vehicle: water); 576 % of control (dose: 60.0 mg/kg/injection, schedule: Q04DX003 (ip), vehicle: Klucel (hydroxypropylcellulose) (HPC)); 416 % of control (dose: 60.0 mg/kg/injection, schedule: Q04DX003 (ip), vehicle: water); 105 % of control and 86 % of control and 88 % of control (dose: 64.0 mg/kg/injection, schedule: Q01DX005 (ip), vehicle: saline). Further, the T/C was 247 % of control (dose: 64.0 mg/kg/injection, schedule: Q08DX002 (ip), vehicle: saline); 441 % of control (dose: 83.3 mg/kg/injection, schedule: Q04DX002 (ip), vehicle: water); 238 % of control and 329 % of control (dose: 96.0 mg/kg/injection, schedule: Q01DX001 (ip), vehicle: water); 89 % of control (dose: 100.0 mg/kg/injection, schedule: Q04DX002 (ip), vehicle: Klucel (hydroxypropylcellulose) (HPC)); 445 % of control (dose: 100.0 mg/kg/injection, schedule: Q04DX002 (ip), vehicle: water); 77 % of control and 89 % of control (dose: 128.0 mg/kg/injection, schedule: Q01DX001 (ip), vehicle: saline with Tween-80). Also, the T/C (dose: 128.0 mg/kg/injection, schedule: Q08DX002 (ip), vehicle: saline) was 98 % of control.

As for `C=CCNC(=S)/N=C1\N=S(C)(=O)c2ccccc21` (stereo unspecified), the T/C was 96 % of control under setting [1], 94 % of control under setting [2] and 102 % of control under setting [3].

Turning to `O=C(O)C(O)C(O)C(=O)O.[Bi].[Na+]` (stereo unspecified), the T/C is 113 % of control (dose: 12.5 mg/kg/injection, schedule: Q01DX009 (ip), vehicle: saline); 115 % of control under setting [4]; 87 % of control and 98 % of control under setting [5]; 93 % of control under setting [6].

Regarding `C=C1C=C(C)C(=O)O1`, the T/C is, setting by setting: (dose: 100.0 mg/kg/injection, schedule: Q01DX001 (ip), vehicle: saline with Tween-80) 99 % of control; (dose: 200.0 mg/kg/injection, schedule: Q01DX001 (ip), vehicle: saline with Tween-80) 103 % of control; (dose: 400.0 mg/kg/injection, schedule: Q01DX001 (ip), vehicle: saline with Tween-80) 105 % of control.

With `CCOc1cc2c(=O)[nH]cnc2c(OCC)c1OCC`, the T/C by setting is: (dose: 50.0 mg/kg/injection, schedule: Q01DX009 (ip), vehicle: saline with Tween-80) 106 % of control; (dose: 100.0 mg/kg/injection, schedule: Q01DX009 (ip), vehicle: saline with Tween-80) 100 % of control; (dose: 200.0 mg/kg/injection, schedule: Q01DX009 (ip), vehicle: saline with Tween-80) 98 % of control.

As to `O=C(O)C(CCc1ccccc1)NCc1ccccc1` (stereo unspecified), the T/C is, setting by setting: under setting [4], 102 % of control; under setting [5], 88 % of control; under setting [6], 88 % of control and 94 % of control; (dose: 200.0 mg/kg/injection, schedule: Q01DX009 (ip), vehicle: saline) 95 % of control; (dose: 400.0 mg/kg/injection, schedule: Q01DX009 (ip), vehicle: saline) 89 % of control.

On to `COc1c(C(C)(C)C)cc(C(C)(C)C)c(OC)c1Br`, for which the T/C by setting is: under setting [1], 100 % of control; under setting [2], 94 % of control; under setting [3], 87 % of control.

These data come from PubChem BioAssay AID330 (DTP/NCI, 2004).
